Experimental data as given in patent publication US20260240822A1, “Methods and Compositions for Treating Atopic Dermatitis” (Regranion, LLC, priority 2023, published 2026).

How the values were obtained:
[1] = Skin concentration in punch biopsies of hidradenitis suppurativa subjects, week 16; format: in vivo, human; conditions: oral dosing at 250 mg; skin (16 weeks daily) vs plasma (single dose)
From the text: A 16-week treatment, randomized, double-blind, proof-of-concept study was designed to assess the safety and efficacy of Compound I compared to placebo in treating hidradenitis suppurativa. Eligible subjects completed an up-to 4-week screening phase and sequentially be randomized 2:1 to one of two cohorts, treatment cohort (n=10) or placebo-control cohort (n=5), in a 16-week treatment phase followed by a 4-week observational follow-up phase. In the 16-week treatment phase, subjects randomized to the treatment group receive 250 mg Compound I free base in the form of a tablet administered orally once daily. The 250 mg dose was selected based on the results of an earlier oncology trial conducted with doses in excess of 1000 mg/day as a safe minimal dose from which to conduct dose escalation if required. Subjects randomized to the placebo-control group receive placebo treatment once daily (microcrystalline cellulose, mannitol, crospovidone, Opadry II red, magnesium stearate, colloidal silicon dioxide).
The accumulation of Compound I in the skin of human hidradenitis suppurativa of subjects in the treatment cohort was determined. […] FIG. 7 is a graph showing the concentrations of Compound I found in the biopsied tissues in subjects grouped according to their clinical response to Compound I therapy. […]

[2] = Plasma pharmacokinetics after single oral dose in healthy male subjects; format: in vivo, human; conditions: single oral dose 250 mg, read-out: Cmax (median)
Method: The skin accumulation found in this study was compared to plasma levels of Compound I determined in a previous study in healthy human volunteers. Six healthy male subjects were given a single oral dose of 250 mg Compound I, and plasma samples were collected pre-dose and at 0.25, 0.5, 0.75, 1, 1.5, 2, 2.5, 3, 4, 6, 8, 10, 12, 18, 24, 30, 36, 48, 72 and 96 hours after dosing.

p65 (subunit of NF-κB) = assay: Western blot of p65 phosphorylation in stimulated NHEKs; format: cell-based, human; conditions: 5 μM, 1 hour
Method: (§1) Primary normal human epidermal keratinocytes (NHEKs) were isolated from nine healthy donors as described previously.^13 The keratinocytes were plated in 6-well plates and cultured in keratinocyte SFM (Gibco, ThermoFisher Scientific, Waltham, MA, USA) supplemented with growth factors and 5 μg/ml Gentamicin (Gibco) at 37° C. in a humidified incubator containing 5% CO2 until 60-70% confluency. Subsequently, the keratinocytes were starved for 24 hours in keratinocyte SFM medium without growth factors before the initiation of experiments.
(§2) PBS-washed keratinocytes were added cell lysis buffer with complete Protease Inhibitor Cocktail and phenylmethylsulphonyl fluoride (Sigma-Aldrich). […] The protein concentration was determined by Bradford Protein Assay.
(§3) A total of 20 μg protein extract for each sample was loaded on 10% mini-PROTEAN TGX PreCast Gel (Bio-Rad, Hercules, CA, USA) and separated by gel electrophoresis using Mini Trans-Blot Cell (Bio-Rad). […] Protein bands were detected with an enhanced chemiluminescence (ECL) reaction using Clarity Western ECL Substrate (Bio-Rad) and digitally imaged with C-DiGit Blot Scanner (LI-COR, Lincoln, NE, USA). To normalize the protein expression to β-actin levels, the membranes were stripped and reprobed with an anti-β-actin antibody (A1978; Sigma-Aldrich), which was detected by HRP-conjugated anti-mouse IgG (p0447; Dako, Glostrup, Denmark). […]

[3] = test system: primary normal human epidermal keratinocytes (NHEKs) stimulated with TNF/IFNγ or TNF/IL-4; assay: RT-qPCR of AD-related gene expression in cytokine-stimulated primary human keratinocytes; format: cell-based; conditions: 5 μM, 24 hours
Method: as §1
Keratinocytes were washed with phosphate-buffered saline (PBS; Gibco) followed by RNA extraction using SV 96 Total RNA Isolation System (Promega, Madison, WI, USA) per the manufacturers' instructions. NanoDrop 2000 Spectrophotometer (ThermoFisher) was used to determine the RNA concentration and purity.
cDNA was generated using total RNA, TaqMan Reverse Transcription Reagents with random hexamers (ThermoFisher) and Peltier Thermal Cycler-200 (MJ Research Inc, Waltham, MA, USA) following the manufacturer's instructions. […]
The statistical significance threshold was set at P<0.05. Differences between treatment groups in clinical endpoints, mRNA (qPCR) and protein levels (western blot) were analysed by unpaired t-tests for mice and paired t-tests for keratinocytes. […]

STAT3 = assay: Western blot of STAT3 phosphorylation in stimulated NHEKs; format: cell-based, human; conditions: 5 μM, TNF/IFNγ or TNF/IL-4 stimulation, 1 hour
Method: as §1, §2, §3

AD-like inflammation = assay: MC903 model at independent testing facility (alternative MC903 regimen); format: in vivo, BALB/c mice; conditions: oral 20, 50 and 100 mg/kg
Method: To evaluate the feasibility of orally administered Compound I, mice were challenged with 2.5 nmol MC903 for six days and administered 100 mg/kg Compound I by oral gavage once daily throughout the experiment.

stimulated NHEKs = conditions: previous concentration studies; used concentration 5 μM; cited from earlier work
[4] = psoriasis and hidradenitis suppurativa patients; cited from earlier work
STAT6 = assay: Western blot of STAT6 phosphorylation in stimulated NHEKs; format: cell-based, human; conditions: 5 μM, TNF/IL-4 stimulation, 1 hour
Method: as §1, §2, §3

[5] = test system: MC903-induced AD-like skin inflammation; assay: MC903-induced atopic dermatitis mouse model; format: in vivo, Female Balb/cAnNRj mice; conditions: for body weight loss: topical treatment, MC903 model
Method: Punch biopsies were stored in 750 μL RNAlater-ICE (ThermoFisher) at −80° C. for 20 minutes and overnight at −20° C. Then, the biopsies were added to 175 μL SV RNA lysis buffer with β-mercaptoethanol (SV Total RNA Isolation System; Promega) followed by homogenization using TissueLyser (Qiagen, Hilden, Germany). The remaining steps including RNA purification and DNase treatment were conducted following the manufacturer's instructions.
cDNA was generated using total RNA, TaqMan Reverse Transcription Reagents with random hexamers (ThermoFisher) and Peltier Thermal Cycler-200 (MJ Research Inc, Waltham, MA, USA) following the manufacturer's instructions. Real-time PCR was carried out with 20 ng cDNA per 20 μL reaction in StepOnePlus Real-Time PCR system (ThemoFisher) using TaqMan Universal PCR Master Mix, primers and probes (ThermoFisher) for TNF (Hs00174128_m1), ILIB (Hs01555410_m1), IL6 (Hs00174131_m1), TSLP (Hs00263639_m1), CCL17 (Hs00171074_m1), CCL22 (Hs01574247_m1), Il1b (Mm00434228_m1), Il4 (Mm00445259_m1), Il6 (Mm00446190_m1), Il13 (Mm00434204_m1) RPLPO (Hs99999902_m1) and Gapdh (Mm99999915_m1). Three technical replicates for each sample underwent real-time PCR; 2 minutes at 50° C. and 10 minutes at 95° C. followed by 40 cycles of 15 seconds at 95° C. and 1 minute at 60° C. The standard curve method with StepOne Software v2.1 and reference genes (RPLPO and Gapdh) were used to obtain normalised relative expression levels of target genes.^17
Female Balb/cAnNRj (8 weeks old) mice were purchased from Janvier Labs (Le Genest-Saint-Isle, France), and housed in animal facilities at 19-25° C. with 12-hour light/dark cycles and free access to laboratory rodent diet and water. The mice had at least 1 week acclimation period before the experiments started.
Mice were randomly divided to receive: vehicle and drug-vehicle (negative control); MC903 (MedChemExpress, Monmouth Junction, NJ, USA) and drug-vehicle (disease control); MC903 and topical or oral Compound I (Compound I treatment groups); or MC903 and topical dexamethasone (positive control; purchased from Sigma-Aldrich). Four to eight mice were allocated to each group, totalling 76 mice for all experiments.
To induce AD-like skin inflammation, 1 or 2.5 nmol of MC903 in 25 μL absolute ethanol was topically applied once daily to the ventral and dorsal surface of the right ear for six consecutive days. After MC903 challenge, the mice were treated with topical Compound I (1 mg in 25 μL ethanol), oral Compound I (100 mg/kg), topical dexamethasone (20 nmol in 25 μl ethanol), or drug-vehicle (topical ethanol or oral 5% kleptose [HPB, Roquette Pharma, Lestrem, France]). The topical treatments were applied 2 hours post-MC903 challenge, whereas the oral treatments were administered by oral gavage immediately post-MC903 challenge. At the end of the experiment on day 9, clinical photos of the ears were taken and the mice were euthanised by cervical dislocation. Two punch biopsies (4 mm) from the ear were collected for RNA isolation and histological assessment. Ear thickness, the primary clinical endpoint for inflammation, was measured daily with a digital calliper (Mitutoyo Corporation, Kawasaki, Japan), and body weight was measured throughout the study to monitor the welfare of mice. During the experimental procedures, the mice were anesthetized with 2% isoflurane.
Four-millimetres punch biopsies from the ear were fixed in 4% formaldehyde overnight at 4° C., paraffin-embedded, and serially sliced into 4 μm sections subjected to staining procedures. For haematoxylin & eosin (HE) staining, a standard protocol was followed. To detect mast cells, sections were stained with 0.1% toluidine blue solution (Sigma-Aldrich) at pH 2.3 and room temperature for 3 minutes. […]

STAT1 = assay: Western blot of STAT1 phosphorylation in stimulated NHEKs; format: cell-based, human; conditions: 5 μM, 1 hour
Method: as §1, §2, §3

[6] = topical, 1 nmol MC903, ear biopsies

## CN(C)c1cc2c(cc1Sc1nc3c(N)nccc3n1CCNCC(C)(C)C)OCO2 [Compound I]
[1]
  accumulation in the skin relative to plasma: approximately 100,000 fold
[2]
  Cmax: 46 nM
p65 (subunit of NF-κB)
  phosphorylation of p65: no significant effects
[3]; TNF/IFNγ or TNF/IL-4 stimulation, vs stimulated/vehicle- and stimulated/dexamethasone-treated NHEKs
  expression of AD-associated cytokines (TNF, IL1B, IL6) and chemokines (CCL17, CCL22): robustly inhibited the expression
[3]; stimulated NHEKs
  expression of TSLP: suppressed
STAT3
  phosphorylation of STAT3: significantly suppressed
AD-like inflammation
  alleviation of AD-like inflammation: dose-dependent improvement
Stimulated NHEKs
  toxicity in stimulated NHEKs: 3-6%
[4]
  tolerability of oral treatment: well-tolerated
STAT6
  reduction of phosphorylation of STAT6: ~ 20%
[5]; oral 100 mg/kg, 2.5 nmol MC903
  erythema: visibly reduced erythema
[5]; oral gavage 100 mg/kg once daily, 2.5 nmol MC903
  reduction of ear thickening compared with drug-vehicle: 28%
[5]; topical 1 mg once daily, 1 nmol MC903, day 9
  reduction in ear thickness compared with drug-vehicle: 55%
[5]; topical 1 mg once daily, 2.5 nmol MC903, day 9
  suppression of MC903-induced ear thickening: 50%
[5]
  body weight loss: significantly less weight loss compared with dexamethasone
[5]; topical, 1 nmol MC903, RNA sequencing and qPCR
  cytokine expression of Il1b, Il4, Il6 and Il13 in ear tissue compared with drug-vehicle: significantly reduced
[5]; topical, 1 nmol MC903, day 9
  erythema: visibly reduced erythema
[5]; [6]
  epidermal and dermal thickness (histology): significantly decreased
  immune cell infiltration into the skin (mast cells, Ly6g+ neutrophils, CD4+ T-cells): significantly suppressed
  total number of cells within histological sections: significantly reduced
[5]; topically delivered, summary of 1 and 2.5 nmol MC903 experiments
  reduction of ear thickness: 50-54%
STAT1
  phosphorylation of STAT1: no significant effects

## C[C@@H]1C[C@H]2[C@@H]3CCC4=CC(=O)C=C[C@]4(C)[C@@]3(F)[C@@H](O)C[C@]2(C)[C@@]1(O)C(=O)CO [dexamethasone, reference compound]
[5]
  body weight loss: lost significantly more weight than Compound I-treated mice
